Patent US20160347739A1, “5-OXOPYRROLIDINE DERIVATIVES AS HIV INTEGRASE INHIBITORS” (priority 2014, published 2016)
“Also recorded” adds a separate entry of the source.

Target: T1, eGFP-MBP-IN-WT (HIV-1 integrase fusion protein) (Human immunodeficiency virus type 1 group M subtype B, UniProt P04585)
T1 construct: as well as integrase wild type (eGFP-MBP-IN-WT) DNA plasmid; expressed in transfected cells; host or cells: HEK 293T cells; plasmid from Dr. Mark A. Muesing (Rockefeller University)
Assay: cellular integrase screening assay (C-terminal domain of HIV-1 IN nuclear import inhibition)
Assay type: cell-based
Details: HEK 293T cells transfected with eGFP-MBP-IN-WT plasmid; compounds at 10, 3.3, 1.1 and 0.33 μM, 0.1% DMSO; fluorescence microscopy
Method: In assessing suitability of a compound according to any of the formulas herein, an integrase screening assay can be conducted. In the present case, an exemplary such assay is a cellular integrase assay. A cellular integrase assay can be performed in a 24 well plate. The assay is designed to test compounds in 3-fold serial dilutions (10, 3.3, 1.1 and 0.33 μM) with 0.1% DMSO. Negative and positive control included eGFP-MBP-IN-R262/3/6A, eGFP-MBP-IN-K236/240 and eGFP-MBP-IN-WT respectively supplemented with 0.1% DMSO. Refinement of the assay for optimal results is feasible. For example, refinement herein yields the following protocol. HEK 293T cells (˜0.4*10̂5 cells/ml) are seeded and incubated at 37° C. (5% CO2) for ˜3 days on Poly-L-lysine treated glass coverslips until 80-90% confluent (˜3.2*10̂5 cells/ml). […] Images may be prepared using an Olympus 1X51 fluorescence microscope equipped with a camera by way of example. […]
As an integrase screening assay, a cellular integrase assay was performed in a 24 well plate. […] Slides were visualized and images, of at least 2 fields per glass disk, were taken with an Olympus 1X51 fluorescence microscope equipped with a camera. […]

## N-(3-ethoxy propyl)-1-[2-(5-methyl-1H-indol-3-yl)ethyl]-5-oxopyrrolidine [compound 209]
  localization phenotype of eGFP-MBP-IN-WT fusion protein (inhibition of nuclear import of IN): nuclear exclusion of the fusion protein; also recorded: exhibited inhibition against HIV to prevent nuclear import of the HIV integrase; also recorded: inhibition of nuclear import of IN
